Results on 34 compounds are retold here after PubChem BioAssay AID699 (NMMLSC, 2007).

As usually defined, the inhibition is the drop in the measured response relative to a control, in per cent.

Calls of active or inactive are those of the source. The rule behind the calls is not given here.

For this experiment, the target named is fMet-Leu-Phe receptor (Homo sapiens) (UniProt P21462). Kind of experiment: inhibition of ligand-evoked FPR calcium flux – cell-based, calcium response, confirmation (AID 699). The following applies: FPR1 cells, ligand-induced calcium response inhibition; hits give high values; concentration not given here. On the technique in general: A change in cytosolic calcium serves as a functional read-out for many receptors and channels.
fMet-Leu-Phe receptor (Homo sapiens), sequence (P21462 whole entry, looked up): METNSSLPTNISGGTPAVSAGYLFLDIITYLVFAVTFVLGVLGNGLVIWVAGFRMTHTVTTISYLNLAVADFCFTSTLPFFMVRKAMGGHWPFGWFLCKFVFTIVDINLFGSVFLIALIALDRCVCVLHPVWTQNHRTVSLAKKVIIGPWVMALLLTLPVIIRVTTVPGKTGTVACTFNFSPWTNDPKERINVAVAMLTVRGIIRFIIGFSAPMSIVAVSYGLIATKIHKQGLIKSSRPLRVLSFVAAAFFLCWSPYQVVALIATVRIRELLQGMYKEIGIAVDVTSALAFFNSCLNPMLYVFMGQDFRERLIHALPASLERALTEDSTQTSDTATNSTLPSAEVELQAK

On to `Cc1[nH]n2c(=O)c(C#N)c(-c3ccccc3)nc2c1-c1ccccc1`, for which the inhibition was 104%. `O=C1C(CCS(=O)c2ccccc2)C(=O)N(c2ccccc2)N1c1ccccc1` (centres undefined): the inhibition is -0% (inactive). The same measure for `COCCCN1C(=O)C(=O)/C(=C(/O)c2ccccc2)C1c1ccc2c(c1)OCO2` (centres undefined): 101%; for `O=C(C1=C(O)C(=O)N(Cc2ccccc2)C1c1ccncc1)c1ccco1` (centres undefined): -0% (inactive); for `O=C1C(C23CC4CC(CC(C4)C2)C3)C(=O)N(c2ccccc2)N1c1ccccc1`: -0% (inactive). For the compound `COc1cc(C2C(C(=O)c3ccco3)=C(O)C(=O)N2CCc2ccccc2)ccc1O` (centres undefined), the inhibition is 98.8%. To `Cc1c(C(=O)NC2CCCc3ccccc32)oc2ccc(S(=O)(=O)N3CCOCC3)cc12` (centres undefined) belongs 66.4% (inactive). The same measure for `CCOc1ccc(C2C(C(=O)c3ccco3)=C(O)C(=O)N2CCCn2ccnc2)cc1` (centres undefined): 23.6% (inactive); for `COC(=O)c1[nH]c(C)c(/C(O)=C2\C(=O)C(=O)N(CCCN3CCOCC3)C2c2ccccn2)c1C` (centres undefined): 26.5% (inactive). On to `CCCCC1C(=O)N(c2ccccc2)N(c2ccccc2)C1=O`, for which the inhibition was 96.9%. As for `CC1(C)S[C@@H]2[C@H](NC(=O)Cc3ccccc3)C(=O)N2[C@H]1C(=O)O`, the inhibition is 79.1% (inactive). Consider `C=CCOc1ccc(C2C(C(=O)c3ccco3)=C(O)C(=O)N2Cc2cccnc2)cc1` (centres undefined), for which the inhibition is -0% (inactive). For the compound `COc1ccccc1-c1c(C)oc2cc(OC(=O)c3ccco3)ccc2c1=O`, the inhibition was 83.2% (inactive). To `C=CCOc1cccc(C2C(C(=O)c3ccco3)=C(O)C(=O)N2CCN2CCOCC2)c1` (centres undefined) belongs 102%; to `CCC(=O)Nc1c(C#N)c2nc3ccccc3nc2n1-c1ccccc1C`, 91.7%. To `CCOc1cccc(/C(O)=C2/C(=O)C(=O)N(CCOC)C2c2ccc(C)o2)c1` (centres undefined) belongs 90.5%; to `COc1ccc(Cl)cc1-n1c(=S)sc2c(=O)[nH]c(SCC(=O)NCC3CCCO3)nc21` (centres undefined), 100%. Consider `COCCCN1C(=O)C(O)=C(C(=O)c2ccco2)C1c1cccc(Br)c1` (centres undefined), for which the inhibition is 90.9%. With `COCCCN1C(=O)C(O)=C(C(=O)c2ccco2)C1c1ccc(Br)cc1` (centres undefined), the inhibition was 39.8% (inactive). To `COc1ccccc1C1/C(=C(/O)c2ccccc2)C(=O)C(=O)N1CC(C)C` (centres undefined) belongs 99%; to `CCCOc1ccc(C2C(C(=O)c3ccco3)=C(O)C(=O)N2CCCn2ccnc2)cc1` (centres undefined), 98.4%; to `Cc1ccsc1C1C2=C(CC(C)(C)CC2=O)Nc2ncnn21` (centres undefined), -0% (inactive). The same measure for `COc1ccccc1Oc1c(C)oc2cc(OC(=O)c3ccco3)ccc2c1=O`: 93.7%; for `COCCN1C(=O)C(O)=C(C(=O)c2cccs2)C1c1ccccc1` (centres undefined): 95.1%; for `CCCOc1ccc(C2C(C(=O)c3ccc(C)o3)=C(O)C(=O)N2CCCn2ccnc2)cc1` (centres undefined): 21.4% (inactive).

For `COc1ccc(OC)c(C2/C(=C(/O)c3ccccc3)C(=O)C(=O)N2Cc2ccco2)c1` (centres undefined), the inhibition is 38.1% (inactive). The same measure for `Cc1ccc(C2/C(=C(/O)c3ccc(Cl)cc3)C(=O)C(=O)N2CC2CCCO2)o1` (centres undefined): 15.5% (inactive). To `O=C(NC1CCCC1)c1sc(=S)n2c1[nH]c(=O)c1ccccc12` belongs 97%; to `CC(C)CN(CC(C)C)C(=O)CS(=O)(=O)Cc1ccccc1`, -0% (inactive); to `COc1ccc(OC)c(C2C(C(=O)c3cccs3)=C(O)C(=O)N2c2cc(C)on2)c1` (centres undefined), 93.8%. Regarding `O=C(C1=C(O)C(=O)N(Cc2ccccc2)C1c1ccco1)c1ccco1` (centres undefined), the inhibition is 56.9% (inactive).

Regarding `COCCCN1C(=O)C(O)=C(C(=O)c2ccco2)C1c1ccccc1` (centres undefined), the inhibition was 56.7% (inactive). The same measure for `COC(=O)c1[nH]c(C)c(/C(O)=C2\C(=O)C(=O)N(CCN3CCOCC3)C2c2cccs2)c1C` (centres undefined): 93.9%; for `Cc1[nH]n2c(=O)c3c(nc2c1-c1ccc(Cl)cc1)CCC3`: -0% (inactive).
